Test results: patent publication US20170355705A1 (GlaxoSmithKline Intellectual Property (No.2) Limited, priority 2014, published 2017)

Molecular target: T1, SIRT1 (Homo sapiens, UniProt Q96EB6)
T1 sequence (Q96EB6 1-747): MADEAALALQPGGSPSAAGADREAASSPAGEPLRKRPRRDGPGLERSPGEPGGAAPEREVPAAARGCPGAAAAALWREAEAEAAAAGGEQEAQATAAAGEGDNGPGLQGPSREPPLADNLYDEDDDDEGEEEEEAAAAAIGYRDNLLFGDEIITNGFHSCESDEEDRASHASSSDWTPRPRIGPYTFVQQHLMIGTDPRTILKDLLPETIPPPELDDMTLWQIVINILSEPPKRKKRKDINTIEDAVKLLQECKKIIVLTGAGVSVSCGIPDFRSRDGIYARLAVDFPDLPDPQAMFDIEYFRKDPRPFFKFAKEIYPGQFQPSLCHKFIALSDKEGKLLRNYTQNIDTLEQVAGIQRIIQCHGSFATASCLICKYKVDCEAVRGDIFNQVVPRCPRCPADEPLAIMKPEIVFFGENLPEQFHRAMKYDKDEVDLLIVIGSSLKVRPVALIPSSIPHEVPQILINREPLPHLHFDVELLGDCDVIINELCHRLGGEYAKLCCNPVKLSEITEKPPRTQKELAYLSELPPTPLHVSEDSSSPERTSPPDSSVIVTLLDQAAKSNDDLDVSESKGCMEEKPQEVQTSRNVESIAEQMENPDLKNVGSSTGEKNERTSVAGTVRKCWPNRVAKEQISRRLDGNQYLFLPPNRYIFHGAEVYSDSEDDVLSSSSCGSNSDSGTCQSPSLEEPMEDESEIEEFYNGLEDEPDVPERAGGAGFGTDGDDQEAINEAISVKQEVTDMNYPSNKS
Assay: Trp mass spectrometry assay of SIRT1 activity (EC1.5, percent maximum activation)
Format: biochemical
Conditions: Trp mass spectrometry assay; for TRP Activity (EC1.5): EC1.5 = concentration giving 150% activation of SIRT1
How it was run: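 N-terminal His-tagged human SIRT1, expressed in BL21(DE3) and purified, was incubated 25 min with an acetylated Trp peptide and NAD plus test compound at varying concentrations, then quenched with formic acid. OAADPR or deacetylated peptide was quantified by mass spectrometry versus compound-free control; EC1.5 is the concentration giving 50% activity increase, with percent maximum activation.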

[1] = 0.5 μM peptide substrate, 120 μM βNAD+, 10 nM SIRT1, 25 minutes at 25° C.
[2] = percent maximum activation of SIRT1

Structure (SMILES)	TRP MAX RESP (percent maximum fold activation) [1]	TRP Activity (EC1.5)	TRP MAX RESP (percent maximum fold activation) [2]	TRP Activity (EC1.5, concentration of test compound that results in 150% activation of SIRT1) [1]
Cc1cc(-c2ccc3c(n2)N(C(=O)Nc2cc(N4C[C@@H](C)O[C@@H](C)C4)ccn2)[C@H]2CCN3C2)ccn1 [Example 356]	A (Fold activation ≧150%)			
Cc1ccc(-c2nc3c(cc2Br)N2CC[C@@H](C2)N3C(=O)Nc2ccccn2)cn1 [Example 2, (4S)-8-bromo-7-(6-methylpyridin-3-yl)-N-(pyridin-2-yl)-3,4-dihydro-1,4-methano pyrido[2,3-b][1,4]diazepine-5(2H)-carboxamide]		B (EC1.5 1-25 μM)	A (Fold activation ≧150%)	
Cn1cc(-c2nc3c(cc2Cl)N2CC[C@@H](C2)N3C(=O)Nc2ccnc(OC[C@@H](O)CO)c2)cn1 [Example 105, (4S)-8-chloro-N-(2-((S)-2,3-dihydroxypropoxy)pyridin-4-yl)-7-(1-methyl-1H-pyrazol-4-yl)-3,4-dihydro-1,4-methanopyrido[2,3-b][1,4]diazepine-5(2H)-carboxamide]		B (EC1.5 1-25 μM)	A (Fold activation ≧150%)	
O=C(NC1CC1)N1c2nc(-c3cccc(C(F)(F)F)c3)c(Cl)cc2N2CC[C@H]1C2 [Example 52, (4S)-8-chloro-N-cyclopropyl-7-(3-(trifluoromethyl)phenyl)-3,4-dihydro-1,4-methanopyrido[2,3-b][1,4]diazepine-5(2H)-carboxamide]		A (EC1.5<1 μM)	A (Fold activation ≧150%)	
CC(C)(CO)COc1cncc(NC(=O)N2c3nc(-c4cccc(C(F)(F)F)c4)c(Cl)cc3N3CC[C@H]2C3)n1 [Example 43, (4S)-8-chloro-N-(6-(3-hydroxy-2,2-dimethylpropoxy)pyrazin-2-yl)-7-(3-(trifluoromethyl)phenyl)-3,4-dihydro-1,4-methanopyrido[2,3-b][1,4]diazepine-5(2H)-carboxamide]		B (EC1.5 1-25 μM)	A (Fold activation ≧150%)	
Cn1cc(-c2ccc3c(n2)N(C(=O)Nc2cnccn2)[C@H]2CCN3C2)cn1 [Example 155, (4S)-7-(1-methyl-1H-pyrazol-4-yl)-N-(pyrazin-2-yl)-3,4-dihydro-1,4-methanopyrido[2,3-b][1,4]diazepine-5(2H)-carboxamide]		B (EC1.5 1-25 μM)	A (Fold activation ≧150%)	
Cc1cc(-c2nc3c(cc2C)N2CC[C@@H](C2)N3C(=O)Nc2ccccn2)ccn1 [Example 36, (4S)-8-methyl-7-(2-methylpyridin-4-yl)-N-(pyridin-2-yl)-3,4-dihydro-1,4-methanopyrido[2,3-b][1,4]diazepine-5(2H)-carboxamide]		B (EC1.5 1-25 μM)	A (Fold activation ≧150%)	
O=C(Nc1cnc(OC[C@H](O)CO)cn1)N1c2nc(-c3cccc(C(F)(F)F)c3)c(Cl)cc2N2CC[C@H]1C2 [Example 34, (4S)-8-chloro-N-(5-((R)-2,3-dihydroxypropoxy)pyrazin-2-yl)-7-(3-(trifluoromethyl)phenyl)-3,4-dihydro-1,4-methanopyrido[2,3-b][1,4]diazepine-5(2H)-carboxamide]		B (EC1.5 1-25 μM)	A (Fold activation ≧150%)	
Cc1cc(-c2ccc3c(n2)N(C(=O)Nc2cnc(C4CC4)cn2)[C@H]2CCN3C2)ccn1 [Example 164, (4S)-N-(5-cyclopropylpyrazin-2-yl)-7-(2-methylpyridin-4-yl)-3,4-dihydro-1,4-methanopyrido[2,3-b][1,4]diazepine-5(2H)-carboxamide]		B (EC1.5 1-25 μM)	A (Fold activation ≧150%)	
O=C(Nc1ccnc(OCCO)n1)N1c2nc(-c3cccc(C(F)(F)F)c3)c(Cl)cc2N2CC[C@H]1C2 [Example 70, (4S)-8-chloro-N-(2-(2-hydroxyethoxy)pyrimidin-4-yl)-7-(3-(trifluoromethyl)phenyl)-3,4-dihydro-1,4-methanopyrido[2,3-b][1,4]diazepine-5(2H)-carboxamide]		A (EC1.5<1 μM)	A (Fold activation ≧150%)	
Cc1cc(-c2ccc3c(n2)N(C(=O)NCCc2ccccn2)[C@H]2CCN3C2)ccn1.Cl [Example 196, (4S)-7-(2-methylpyridin-4-yl)-N-(2-(pyridin-2-yl)ethyl)-3,4-dihydro-1,4-methanopyrido[2,3-b][1,4]diazepine-5(2H)-carboxamide hydrochloride]		C (EC1.5>25 μM)	B (Fold Activation <150%)	
Cc1ccc(-c2nc3c(cc2Cl)N2CC[C@@H](C2)N3C(=O)Nc2ccccn2)cn1 [Example 16, (4S)-8-chloro-7-(6-methylpyridin-3-yl)-N-(pyridin-2-yl)-3,4-dihydro-1,4-methanopyrido[2,3-b][1,4]diazepine-5(2H)-carboxamide]		B (EC1.5 1-25 μM)	A (Fold activation ≧150%)	
Cc1cc(-c2cccc(C(F)(F)F)c2)nc2c1N1CC[C@@H](C1)N2C(=O)Nc1ccnc(OC[C@@H](O)CO)c1 [Example 87, (4S)-N-(2-((S)-2,3-dihydroxypropoxy)pyridin-4-yl)-9-methyl-7-(3-(trifluoromethyl)phenyl)-3,4-dihydro-1,4-methanopyrido[2,3-b][1,4]diazepine-5(2H)-carboxamide]		A (EC1.5<1 μM)	A (Fold activation ≧150%)	
CCc1cnc(NC(=O)N2c3nc(-c4ccc(C)nc4)ccc3N3CC[C@H]2C3)cn1 [Example 220, (4S)-N-(5-ethylpyrazin-2-yl)-7-(6-methylpyridin-3-yl)-3,4-dihydro-1,4-methanopyrido[2,3-b][1,4]diazepine-5(2H)-carboxamide]	A (Fold activation ≧150%)			B (EC1.5 1-25 μM)
Cc1ccc(NC(=O)N2c3nc(-c4ccnc(C)c4)ccc3N3CC[C@H]2C3)cn1 [Example 178, (4S)-N-(6-methylpyridin-3-yl)-7-(2-methylpyridin-4-yl)-3,4-dihydro-1,4-methanopyrido[2,3-b][1,4]diazepine-5(2H)-carboxamide]		B (EC1.5 1-25 μM)	A (Fold activation ≧150%)	
Cl.O=C(Nc1ccnc(OC[C@H](O)CO)c1)N1c2nc(-c3cccc(C(F)(F)F)c3)c(Cl)cc2N2CC[C@H]1C2 [Example 60, (4S)-8-chloro-N-(2-((R)-2,3-dihydroxypropoxy)pyridin-4-yl)-7-(3-(trifluoromethyl)phenyl)-3,4-dihydro-1,4-methanopyrido[2,3-b][1,4]diazepine-5(2H)-carboxamide, Hydrochloride]		A (EC1.5<1 μM)	A (Fold activation ≧150%)	
C[C@@H]1COCCN1c1ccc2c(n1)N(C(=O)Nc1cccnc1)[C@H]1CCN2C1 [Example 204, (4S)-7-((R)-3-methylmorpholino)-N-(pyridin-3-yl)-3,4-dihydro-1,4-methano-pyrido[2,3-b][1,4]diazepine-5(2H)-carboxamide]	A (Fold activation ≧150%)			B (EC1.5 1-25 μM)
O=C(Nc1ccnc(OCCCO)n1)N1c2nc(-c3cccc(C(F)(F)F)c3)c(Cl)cc2N2CC[C@H]1C2 [Example 42, (4S)-8-chloro-N-(2-(3-hydroxypropoxy)pyrimidin-4-yl)-7-(3-(trifluoromethyl)phenyl)-3,4-dihydro-1,4-methanopyrido[2,3-b][1,4]diazepine-5(2H)-carboxamide]		A (EC1.5<1 μM)	A (Fold activation ≧150%)	
CC(C)(CO)COc1nccc(NC(=O)N2c3nc(-c4cccc(C(F)(F)F)c4)ccc3N3CC[C@H]2C3)n1 [Example 321, (4S)-N-(2-(3-hydroxy-2,2-dimethylpropoxy)pyrimidin-4-yl)-7-(3-(trifluoromethyl)phenyl)-3,4-dihydro-1,4-methanopyrido[2,3-b][1,4]diazepine-5(2H)-carboxamide]	A (Fold activation ≧150%)			B (EC1.5 1-25 μM)
CC1CN(c2ccc3c(n2)N(C(=O)Nc2cnccn2)[C@H]2CCN3C2)CCN1 (single isomer, unassigned) [Example 229]	B (Fold Activation <150%)			C (EC1.5>25 μM)
